Data: publication PMC12320299 (Chemical Science, 2025)

Tests used:
[1] = Solubility in phosphate buffered saline; type: physicochemical; conditions: PBS with 1% DMSO
Excerpt: Fig. 2 (A) Chemical structures of the investigated naphthoquinone-based metal(arenes) in this study.

[2] = system: SW480 colon carcinoma cell line; experiment: MTT viability assay, SW480, 24 h; type: cell-based, human; conditions: for IC50: 24 h incubation; for potency compared to morpholine-analogues 1b and 2b: SW480, 24 h
Method: cultured in adherent T75 flasks (Sarstedt) in a humidified incubator at 37 °C and 5% CO2 (HeraCell150i, Thermo Fisher Scientific) and subcultured three times a week as the cells reached 75–80% growth area occupied. […]
Trypsin/EDTA solution (0.25%, Sigma-Aldrich) was used for detachment of all […]
SW480 human colon carcinoma cells (4.000 cells/well for the ethyl complexes; 4.000 and 10.000 cells/well for the morpholino complexes) were seeded in flat-bottom 96-well plates (Corning) and incubated at 37 °C for 24 h in a humidified incubator at 5% CO2 (HeraCell150i, Thermo Fisher Scientific). Stock solutions of the compounds were freshly prepared in DMSO […]
10 µM in complete cell culture medium for the ethyl compounds and 5, 10, 20, 40, 60, 80, 120, 160 µM for the morpholino compounds (final concentration of DMSO ≤0.4% v/v). The cells were incubated with the compounds for 24 h and 72 h. Then, the cell metabolism was colorimetrically determined using 3-(4,5-dimethylthiazol-2-yl)-2,5-diphenyl tetrazolium bromide (MTT). For this purpose, MTT reagent (20 µL, 5 mg mL-1 in phosphate-buffered saline, PBS) was added to each well and further incubated for 4 h. The medium was gently […]
removed and 100 µL DMSO was added to dissolve the formazan crystals. Photometric quantification was performed at 570 nm with a Multiskan Go 1510 photometer (Thermo Fisher […]
The absorbances were blank corrected and converted to relative proliferation. The IC50 values (concentration of 50% growth inhibition) were obtained using a sigmoidal fit of the experimental data and calculated as the mean ± standard deviation of at least three independent experiments, each in at least triplicates. […]
(each 3.000 cells/well) were seeded in 100 µL/well into flat-bottom 96-well plates (Starlab) and incubated at 37 °C for 24 h in a humidified incubator (Binder CB210) at 5% CO2. Complex 1a, bafilomycin or bortezomib were dissolved in DMSO and diluted in appropriate cell culture medium to respective concentrations. After 24 h of treatment, plates were measured by MTT assay as described above.
Colon carcinoma cells (SW480) were seeded into 12-well plates (CytoOne, Starlab) in densities of 1×10^5 cells per well (in 1 mL complete medium). After 24 h, cells were treated with […]

[3] = Stability in aqueous solution by ESI-MS; type: physicochemical; conditions: 50 μM, share of total intensity
Method: In order to elucidate the transformation products of hydrolysis at micromolar concentrations, the four compounds were analogously incubated at 50 μM and analysed by ESI-MS[34] in a time-dependent manner after 1.5 h, 24 h and 72 h. The four complexes of this series were quite stable over 24 h (ESI, Fig. S12 ^†), but gradually released the NQ-ligands over the course of 72 h, which was observed by the formation of characteristic metal(cymene)-dimers containing pyrazole as bridging ligands. In addition, the observation of the free 3-Morph-NQ ligand after 24 h further supported the previously established activation mechanism (ESI, Fig. S12 ^†). A mass signal, which was probably generated by in-source fragmentation corresponded to pyrazole-release. […] In general, the intensity of the intact compounds after 24 h at 50 μM corresponded to approximately 40% of the total intensity of the mass spectrum in all four cases, not accounting for ionization efficiency (Fig. 2B).
Stability Study by UV-Vis Spectroscopy […]
80 µM. The stability of the compounds was monitored in a UV-Vis spectrophotometer (Perkin Elmer lambda 35 photometer) over 96 h by acquiring an UV-Vis spectrum every 30 mins. The percentage of the remaining intact compound was calculated by the ratio of the maximum absorbance of the tridentate complexes’ characteristic absorption band around 350– 370 nm after a given timepoint (A) compared to the one directly after dilution (A0). […]
Samples were diluted to a concentration of 2.5 µM with an organic eluent (49.5% v/v acetonitrile, 49.5% v/v methanol,1% v/v H2O), except ubiquitin containing samples which were diluted to the same concentration with acidified H2O (0.1% v/v formic acid). The samples were then analysed by flow-injection using an amazon speed ETD ion trap (Bruker Daltonics) in the positive ion mode over 0.4 min using the following experimental parameters: HV capillary ±4.5 kV, end plate offset –500 V, dry temp 180 °C, nebulizer 3 bar, dry gas 5 L min-1, scan range m/z 200–1400, target mass m/z 900, flow rate 5 µL min-1. […]

Compound	Solubility in PBS [1]	IC50 [2]	potency compared to morpholine-analogues 1b and 2b [2]	Intact compound after 24 h, aqueous medium [3]
CCC1=C2[O][Ru][O]C2(n2cccn2)c2ccccc2C1=O.Cc1ccc(C(C)C)cc1 (centres unmarked) [Compound 1a, [(3-ethyl-4-oxo-(pyrazolyl)-dihydronaphthalene)(cymene)ruthenium(II)]]	170 µM	620 ± 40 nM	> 30 times	42%
Cc1ccc(C(C)C)cc1.O=C1C(CN2CCOCC2)=C2[O][Ru][O]C2(n2cccn2)c2ccccc21 (centres unmarked) [Compound 1b]	1220 µM	38000 ± 5000 nM	–	47%
CCC1=C2[O][Os][O]C2(n2cccn2)c2ccccc2C1=O.Cc1ccc(C(C)C)cc1 (centres unmarked) [Compound 2a]	210 µM	1200 ± 100 nM	> 30 times	45%
